Measured values taken from US8530181B2, “Method of screening for compounds which affect the cleavage of EphA7 byγ-secretase” (Eisai R&D Management Co., Ltd., priority 2007, dated 2013).

Target: T1, γ-secretase (Homo sapiens, UniProt P49768)
T1 construct: 293/EBNA-1 cell strain (Invitrogen) was cultured in 10% FBS (Hyclone)/DMEM (Invitrogen); host or cells: 293/EBNA-1 (HEK293) cells; only the substrate rat EphA7-HA was transfected
Test: Analysis of EphA7 processing in EphA7-transfected 293/EBNA-1 cell strain (Western blotting with anti-HA antibody)
Assay type: cell-based
Design: dose or concentration left out as unconfirmed
Details: HEK293 (293/EBNA-1) cells expressing rat EphA7-HA; Compound E added to culture broth, cultured one day; compared with cells without Compound E
Method: Whether or not EphA7 is a substrate for γ-secretase was evaluated using HEK293 cells expressing a gene encoding EphA7 with an HA tag added to its C-terminus, in the presence of a γ-secretase inhibitor. As the γ-secretase inhibitor, (2S)-2-{[(3,5-difluorophenyl)acetyl]amino}-N-[(3S)-1-methyl-2-oxo-5-phenyl-2,3-dihydro-1H-1,4-benzodiazepin-3-yl]propanamide (hereinafter, sometimes referred to as “Compound E”) (Alexis Biochemicals) was used.
293/EBNA-1 cell strain (Invitrogen) was cultured in 10% FBS (Hyclone)/DMEM (Invitrogen) under 5% CO2 at 37° C., followed by transfection thereinto of the gene encoding rat EphA7 with an HA tag added to its C-terminus using Lipofectamine 2000 (Invitrogen). After one day culture under the same conditions, […] Compound E (γ-secretase inhibitor; Alexis Biochemicals) was added to the culture broth. Cells were cultured for another day under the same conditions. Then, the transfected HEK293 cells were collected with PBS (Sigma) and sonicated with a sonicator (Taitec VP-5S) to disrupt cells. Then, the quantity of protein was determined with Protein Assay Kit (BioRad). […]
First, the substrate for γ-secretase is cut off its extracellular domain by other protease. […] Since reactions proceed very quickly from the first cleavage to the final degradation by proteasome, the substrate is […] when detected by Western blotting.

C[C@H](NC(=O)Cc1cc(F)cc(F)c1)C(=O)N[C@H]1N=C(c2ccccc2)c2ccccc2N(C)C1=O [Compound E, (2S)-2-{[(3,5-difluorophenyl)acetyl]amino}-N-[(3S)-1-methyl-2-oxo-5-phenyl-2,3-dihydro-1H-1,4-benzodiazepin-3-yl]propanamide]
Accumulation of EphA7 C-terminal fragment (CTF, band around 50 kDa) on Western blot, indicating inhibited cleavage of EphA7 by γ-secretase: CTF was accumulated
